Experimental findings from article PMC9416303, “Two New Picoline-Derived Meroterpenoids with Anti-Acetylcholinesterase Activity from Ascidian-Derived Fungus Amphichorda felina” (Molecules, 2022) are described below.

The target of this experiment is acetylcholinesterase (AChE) (Electrophorus electricus, UniProt O42275). Nature of the experiment: modified Ellman's colorimetric assay, commercial AChE (Sigma C3389). Type of experiment: biochemical. For orientation: DTNB colorimetry detects thiols as they appear.

Molecules are shown by their SMILES.

Sequence of acetylcholinesterase (AChE) (O42275 24-633): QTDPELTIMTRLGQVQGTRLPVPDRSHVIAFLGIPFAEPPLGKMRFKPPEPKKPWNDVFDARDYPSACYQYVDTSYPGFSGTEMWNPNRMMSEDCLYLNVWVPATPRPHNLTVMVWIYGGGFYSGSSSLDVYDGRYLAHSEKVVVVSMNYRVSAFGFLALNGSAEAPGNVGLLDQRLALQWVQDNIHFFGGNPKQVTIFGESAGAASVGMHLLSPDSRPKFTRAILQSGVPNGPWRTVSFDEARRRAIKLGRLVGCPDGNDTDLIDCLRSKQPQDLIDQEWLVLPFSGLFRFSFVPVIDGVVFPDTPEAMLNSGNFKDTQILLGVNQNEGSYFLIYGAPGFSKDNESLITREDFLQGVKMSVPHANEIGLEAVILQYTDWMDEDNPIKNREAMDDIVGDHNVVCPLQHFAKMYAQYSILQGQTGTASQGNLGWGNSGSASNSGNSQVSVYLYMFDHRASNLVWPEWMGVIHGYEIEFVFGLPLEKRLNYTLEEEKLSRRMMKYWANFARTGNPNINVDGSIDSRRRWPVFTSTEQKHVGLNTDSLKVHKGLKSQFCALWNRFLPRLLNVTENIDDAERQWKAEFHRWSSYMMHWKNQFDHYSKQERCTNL

Regarding `C[C@H]1COC(c2cc3c(cn2)OC(C)(C)[C@H](O)C3)=CC1=O` [compound 1, Amphichoterpenoid D], the IC50 worked out at 12.5 µM.

With `C[C@@H]1COC(c2cc3c(cn2)OC(C)(C)[C@H](O)C3)=CC1=O` [compound 2, Amphichoterpenoid E], the IC50 is 11.6 µM.

As a reminder, the IC50 is the concentration that gives 50% inhibition. A lower IC50 goes with greater potency in that assay.
